From PubChem BioAssay (NCI)
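Step 1: Grow cells in 96-well plates. Step 2: Expose to compound for 48 hours at 5 concentrations. Step 3: Interpolate endpoints linearly; if unreached, use highest concentration. At the GI50, growth is halved. At the TGI there is no net growth.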

How the values were obtained:
Assay in all cases: inhibition of tumour cell growth, NCI panel, 48 h
786-0 renal = tested on: 786-0 renal
A498 renal = tested on: A498 renal
A549 NSCLC = tested on: A549 NSCLC
ACHN renal = tested on: ACHN renal
CCRF-CEM leukemia = tested on: CCRF-CEM leukemia
COLO 205 colon = tested on: COLO 205 colon
DLD-1 colon = tested on: DLD-1 colon
DMS 114 small cell lung = tested on: DMS 114 small cell lung
DMS 273 small cell lung = tested on: DMS 273 small cell lung
EKVX NSCLC = tested on: EKVX NSCLC
HCC-2998 colon = tested on: HCC-2998 colon
HCT-116 colon = tested on: HCT-116 colon
HCT-15 colon = tested on: HCT-15 colon
HOP-18 NSCLC = tested on: HOP-18 NSCLC
HOP-62 NSCLC = tested on: HOP-62 NSCLC
HOP-92 NSCLC = tested on: HOP-92 NSCLC
HT29 colon = tested on: HT29 colon
IGROV1 ovarian = tested on: IGROV1 ovarian
K-562 leukemia = tested on: K-562 leukemia
KM12 colon = tested on: KM12 colon
KM20L2 colon = tested on: KM20L2 colon
LOX IMVI melanoma = tested on: LOX IMVI melanoma
LXFL 529 NSCLC = tested on: LXFL 529 NSCLC
M14 melanoma = tested on: M14 melanoma
M19-MEL melanoma = tested on: M19-MEL melanoma
MALME-3M melanoma = tested on: MALME-3M melanoma
MOLT-4 leukemia = tested on: MOLT-4 leukemia
NCI-H226 lung = tested on: NCI-H226 lung
NCI-H23 lung = tested on: NCI-H23 lung
NCI-H460 lung = tested on: NCI-H460 lung
NCI-H522 lung = tested on: NCI-H522 lung
OVCAR-3 ovarian = tested on: OVCAR-3 ovarian
OVCAR-4 ovarian = tested on: OVCAR-4 ovarian
OVCAR-5 ovarian = tested on: OVCAR-5 ovarian
OVCAR-8 ovarian = tested on: OVCAR-8 ovarian
RXF 393 renal = tested on: RXF 393 renal
SF-268 CNS = tested on: SF-268 CNS
SF-295 CNS = tested on: SF-295 CNS
SF-539 CNS = tested on: SF-539 CNS
SK-MEL-2 melanoma = tested on: SK-MEL-2 melanoma
SK-MEL-28 melanoma = tested on: SK-MEL-28 melanoma
SK-MEL-5 melanoma = tested on: SK-MEL-5 melanoma
SK-OV-3 ovarian = tested on: SK-OV-3 ovarian
SN12C renal = tested on: SN12C renal
SNB-19 CNS = tested on: SNB-19 CNS
SNB-75 CNS = tested on: SNB-75 CNS
SNB-78 CNS = tested on: SNB-78 CNS
SR leukemia = tested on: SR leukemia
SW-620 colon = tested on: SW-620 colon
TK-10 renal = tested on: TK-10 renal
U251 CNS = tested on: U251 CNS
UACC-257 melanoma = tested on: UACC-257 melanoma
UACC-62 melanoma = tested on: UACC-62 melanoma
UO-31 renal = tested on: UO-31 renal
XF 498 CNS = tested on: XF 498 CNS
CAKI-1 renal = tested on: CAKI-1 renal
HL-60(TB) leukemia = tested on: HL-60(TB) leukemia
RPMI-8226 leukemia = tested on: RPMI-8226 leukemia

CCC[CH2][Sn]([CH2]CCC)([O]C(=O)Cc1ccc(F)cc1)[O]C(=O)Cc1ccc(F)cc1
GI50 (786-0 renal): 505 nM | TGI (786-0 renal): 1720 nM | GI50 (A498 renal): 573 nM | TGI (A498 renal): 1860 nM | GI50 (A549 NSCLC): 7000 nM | TGI (A549 NSCLC): 19900 nM | GI50 (ACHN renal): 756 nM | TGI (ACHN renal): 2010 nM | GI50 (CCRF-CEM leukemia): 36.2 nM | TGI (CCRF-CEM leukemia): 11900 nM | GI50 (COLO 205 colon): 679 nM | TGI (COLO 205 colon): 2000 nM | GI50 (DLD-1 colon): 291 nM | TGI (DLD-1 colon): 1420 nM | GI50 (DMS 114 small cell lung): 140 nM | TGI (DMS 114 small cell lung): 393 nM | GI50 (DMS 273 small cell lung): 1040 nM | TGI (DMS 273 small cell lung): 2220 nM | GI50 (EKVX NSCLC): 777 nM | TGI (EKVX NSCLC): 2090 nM | GI50 (HCC-2998 colon): 1230 nM | TGI (HCC-2998 colon): 2520 nM | GI50 (HCT-116 colon): 657 nM | TGI (HCT-116 colon): 1970 nM | GI50 (HCT-15 colon): 1040 nM | TGI (HCT-15 colon): 2230 nM | GI50 (HOP-18 NSCLC): 1670 nM | TGI (HOP-18 NSCLC): 3050 nM | GI50 (HOP-62 NSCLC): 2380 nM | TGI (HOP-62 NSCLC): 4080 nM | GI50 (HOP-92 NSCLC): 1020 nM | TGI (HOP-92 NSCLC): 2200 nM | GI50 (HT29 colon): 1610 nM | TGI (HT29 colon): 3680 nM | GI50 (IGROV1 ovarian): 1340 nM | TGI (IGROV1 ovarian): 2790 nM | GI50 (K-562 leukemia): 53.5 nM | TGI (K-562 leukemia): 580 nM | GI50 (KM12 colon): 1710 nM | TGI (KM12 colon): 4030 nM | GI50 (KM20L2 colon): 1880 nM | TGI (KM20L2 colon): 4690 nM | GI50 (LOX IMVI melanoma): 279 nM | TGI (LOX IMVI melanoma): 1270 nM | GI50 (LXFL 529 NSCLC): 47.6 nM | TGI (LXFL 529 NSCLC): 202 nM | GI50 (M14 melanoma): 1060 nM | TGI (M14 melanoma): 2260 nM | GI50 (M19-MEL melanoma): 295 nM | TGI (M19-MEL melanoma): 1650 nM | GI50 (MALME-3M melanoma): 240 nM | TGI (MALME-3M melanoma): 1350 nM | GI50 (MOLT-4 leukemia): 124 nM | TGI (MOLT-4 leukemia): 796 nM | GI50 (NCI-H226 lung): 443 nM | TGI (NCI-H226 lung): 1850 nM | GI50 (NCI-H23 lung): 176 nM | TGI (NCI-H23 lung): 1140 nM | GI50 (NCI-H460 lung): 2270 nM | TGI (NCI-H460 lung): 5850 nM | GI50 (NCI-H522 lung): 23.2 nM | TGI (NCI-H522 lung): 149 nM | GI50 (OVCAR-3 ovarian): 1270 nM | TGI (OVCAR-3 ovarian): 2540 nM | GI50 (OVCAR-4 ovarian): 1680 nM | TGI (OVCAR-4 ovarian): 3130 nM | GI50 (OVCAR-5 ovarian): 1790 nM | TGI (OVCAR-5 ovarian): 3180 nM | GI50 (OVCAR-8 ovarian): 917 nM | TGI (OVCAR-8 ovarian): 2130 nM | GI50 (RXF 393 renal): 145 nM | TGI (RXF 393 renal): 695 nM | GI50 (SF-268 CNS): 450 nM | TGI (SF-268 CNS): 1750 nM | GI50 (SF-295 CNS): 1130 nM | TGI (SF-295 CNS): 2340 nM | GI50 (SF-539 CNS): 1060 nM | TGI (SF-539 CNS): 2280 nM | GI50 (SK-MEL-2 melanoma): 355 nM | TGI (SK-MEL-2 melanoma): 1480 nM | GI50 (SK-MEL-28 melanoma): 396 nM | TGI (SK-MEL-28 melanoma): 1680 nM | GI50 (SK-MEL-5 melanoma): 1080 nM | TGI (SK-MEL-5 melanoma): 2270 nM | GI50 (SK-OV-3 ovarian): 2930 nM | TGI (SK-OV-3 ovarian): 7330 nM | GI50 (SN12C renal): 856 nM | TGI (SN12C renal): 2100 nM | GI50 (SNB-19 CNS): 1360 nM | TGI (SNB-19 CNS): 2650 nM | GI50 (SNB-75 CNS): 705 nM | TGI (SNB-75 CNS): 2100 nM | GI50 (SNB-78 CNS): 284 nM | TGI (SNB-78 CNS): 1570 nM | GI50 (SR leukemia): 196 nM | TGI (SR leukemia): 1860 nM | GI50 (SW-620 colon): 206 nM | TGI (SW-620 colon): 1130 nM | GI50 (TK-10 renal): 1030 nM | TGI (TK-10 renal): 2210 nM | GI50 (U251 CNS): 361 nM | TGI (U251 CNS): 1540 nM | GI50 (UACC-257 melanoma): 603 nM | TGI (UACC-257 melanoma): 1990 nM | GI50 (UACC-62 melanoma): 629 nM | TGI (UACC-62 melanoma): 1890 nM | GI50 (UO-31 renal): 1430 nM | TGI (UO-31 renal): 2750 nM | GI50 (XF 498 CNS): 1080 nM | TGI (XF 498 CNS): 2290 nM

CN(C)C=C1C(=O)N(C)C(=O)N(C)C1=O
TGI (786-0 renal): > 100000 nM | TGI (A498 renal): > 100000 nM | TGI (A549 NSCLC): > 100000 nM | TGI (ACHN renal): > 100000 nM | TGI (CAKI-1 renal): > 100000 nM | TGI (CCRF-CEM leukemia): > 100000 nM | TGI (DLD-1 colon): > 100000 nM | TGI (DMS 114 small cell lung): > 100000 nM | TGI (DMS 273 small cell lung): > 100000 nM | TGI (EKVX NSCLC): > 100000 nM | TGI (HCC-2998 colon): > 100000 nM | TGI (HCT-116 colon): > 100000 nM | TGI (HCT-15 colon): > 100000 nM | TGI (HL-60(TB) leukemia): > 100000 nM | TGI (HOP-18 NSCLC): > 100000 nM | TGI (HOP-92 NSCLC): > 100000 nM | TGI (HT29 colon): > 100000 nM | TGI (K-562 leukemia): > 100000 nM | TGI (KM12 colon): > 100000 nM | TGI (KM20L2 colon): > 100000 nM | TGI (LOX IMVI melanoma): > 100000 nM | TGI (LXFL 529 NSCLC): > 100000 nM | TGI (M14 melanoma): > 100000 nM | TGI (M19-MEL melanoma): > 100000 nM | TGI (MALME-3M melanoma): > 100000 nM | TGI (MOLT-4 leukemia): > 100000 nM | TGI (NCI-H226 lung): > 100000 nM | TGI (NCI-H23 lung): > 100000 nM | TGI (NCI-H460 lung): > 100000 nM | TGI (OVCAR-3 ovarian): > 100000 nM | TGI (OVCAR-4 ovarian): > 100000 nM | TGI (OVCAR-5 ovarian): > 100000 nM | TGI (OVCAR-8 ovarian): > 100000 nM | TGI (RPMI-8226 leukemia): > 100000 nM | TGI (RXF 393 renal): > 100000 nM | TGI (SF-295 CNS): > 100000 nM | TGI (SF-539 CNS): > 100000 nM | TGI (SK-MEL-2 melanoma): > 100000 nM | TGI (SK-MEL-28 melanoma): > 100000 nM | TGI (SK-MEL-5 melanoma): > 100000 nM | TGI (SN12C renal): > 100000 nM | TGI (SNB-19 CNS): > 100000 nM | TGI (SNB-75 CNS): > 100000 nM | TGI (SNB-78 CNS): > 100000 nM | TGI (SR leukemia): > 100000 nM | TGI (SW-620 colon): > 100000 nM | TGI (TK-10 renal): > 100000 nM | TGI (U251 CNS): > 100000 nM | TGI (UACC-257 melanoma): > 100000 nM | TGI (UACC-62 melanoma): > 100000 nM | TGI (UO-31 renal): > 100000 nM | TGI (XF 498 CNS): > 100000 nM
